Description: These two sunscreens are difficult to dissolve and keep in solution for use in sunscreen formulations for optimal SPF (Sun-Protection Factors). Higher solvency for a sunscreen ingredient is described as it allows higher concentrations of the sunscreen active ingredient in a formulation. […] The liquid organic sunscreens that are commonly used as octylsalicylate (OS) and octyl-methoxycinnamate (OMC).

Solubility in Finester LP (%): 10%
Solubility in Finsolv TN (%): 15%
SMILES: COc1ccc(C(=O)c2ccccc2)c(O)c1 [Benzophenone-3, 2 hydroxy-4-methoxybenzophenone]
